From US20190203240A1, “METHODS FOR THE PRODUCTION OF RHAMNOSYLATED FLAVONOIDS” (Universitaet Hamburg, priority 2016, published 2019)

What was measured:
Type in all cases: cell-based
[1] = test system: STAT3; assay: STAT3 activity in HeLa-STAT3-luc cells stimulated with IFN-γ (luciferase); settings: +IFNγ 25 U/ml
Protocol: HeLa-STAT3-luc cells were stably transfected with the plasmid 4×M67 pTATA TK-Luc. Cells (20×10^3 cells/ml) were seeded 96-well plate the day before the assay. Then the cells were treated with the test substances for […] and then stimulated with IFN-γ 25 IU/ml. After 6 h, the cells were washed twice with PBS and lysed in […] lysis buffer containing 25 mM Tris-phosphate (pH 7.8), 8 mM MgCl2, 1 mM DTT, 1% Triton X-100, and 7% glycerol during […] at RT in a horizontal shaker. Luciferase activity was measured using GloMax 96 microplate luminometer (Promega) following the instructions of the luciferase assay kit (Promega, Madison, Wis., USA). […] The experiments for each concentration of the test items were done in triplicate wells.

[2] = test system: NF-κB; assay: NF-κB activity in NIH3T3-KBF-Luc cells stimulated with TNFα (luciferase); settings: +30 ng/ml TNFα
Protocol: NIH3T3-KBF-Luc cells were stably transfected with the KBF-Luc plasmid (Sancho (2003) Mol Pharmacol 63:429-438), which contains three copies of NF-κB binding site (from major histocompatibility complex promoter), fused to a minimal simian virus 40 promoter driving the luciferase gene. Cells (1×10^4 for NIH3T3-KBF-Luc) were seeded the day before the assay on 96-well plate. Then the cells were treated with the test substances for 15 min and then stimulated with 30 ng/ml of TNFα. After 6 h, the cells were washed twice with PBS and lysed in 50 μl lysis buffer containing 25 mM Tris-phosphate (pH 7.8), 8 mM MgCl2, 1 mM DTT, 1% Triton X-100, and 7% glycerol during 15 min at RT in a horizontal shaker. Luciferase activity was measured using a GloMax 96 microplate luminometer (Promega) following the instructions of the luciferase assay kit (Promega, Madison, Wis., USA). […] The experiments for each concentration of the test items were done in triplicate wells.

[3] = test system: HaCaT cells; assay: Glucose uptake (2-NBDG) in HaCaT keratinocytes; settings: +2NBDG 50 μM, 24 h
Protocol: HaCaT cells (5×10^4) were seeded in 96-well black plates and incubated for 24 h. Then, medium was removed and the cells cultivated in OptiMEM, labeled with 50 μM 2-NBDG (2-[N-(7-nitrobenz-2-oxa-1,3-diazol-4-yl) amino]-2-deoxy-D-glucose and treated with the test substances or the positive control, Rosiglitazone, for 24 h. Medium was removed and the wells were carefully washed with PBS and incubated in PBS (100 μl/well). Finally the fluorescence was measured using the Incucyte FLR software, the data were analyzed by the total green object integrated intensity (GCU×μm2×Well) of the imaging system IncuCyte HD (Essen BioScience). The fluorescence of Rosiglitazone is taken as 100% of glucose uptake, and the glucose uptake was calculated as (% Glucose uptake)=100(T−B)/(R−B), where T (treated) is the fluorescence of test substance-treated cells, B (Basal) is the fluorescence of 2-NBDG cells and […] is the fluorescence of cells treated with Rosiglitazone.

Row | SMILES | % Activation (NF-κB; TNFα = 100%) ([2]; 10 μM) [%] | RLU 1 ([2]; 10 μM) [RLU] | RLU 2 ([2]; 10 μM) [RLU] | RLU 3 ([2]; 10 μM) [RLU] | RLU MEAN ([2]; 10 μM) [RLU] | RLU specific ([2]; 10 μM) [RLU] | RLU 1 ([2]; 25 μM) [RLU] | RLU 2 ([2]; 25 μM) [RLU] | RLU 3 ([2]; 25 μM) [RLU] | RLU MEAN ([2]; 25 μM) [RLU] | RLU specific ([2]; 25 μM) [RLU] | % Glucose uptake (Rosiglitazone = 100%) ([3]; 25 μM) [%] | Mean (fluorescence) ([3]; 25 μM) | Measure 1 (fluorescence) ([3]; 25 μM) | Measure 2 (fluorescence) ([3]; 25 μM) | Measure 3 (fluorescence) ([3]; 25 μM) | RFU specific ([3]; 25 μM) [RFU] | % Glucose uptake (Rosiglitazone = 100%) ([3]; 50 μM) [%] | Mean (fluorescence) ([3]; 50 μM) | Measure 1 (fluorescence) ([3]; 50 μM) | further results
1 | COc1ccc(-c2coc3cc(O)cc(O[C@@H]4O[C@@H](C)[C@H](O)[C@@H](O)[C@H]4O)c3c2=O)cc1 [BR2, Biochanin A 5-O-α-L-rhamnoside] | 138.3 | 205410 | 202640 | 202940 | 203663 | 180300 | 237390 | 235850 | 235350 | 236197 | 212833 | 77.5 | 1027608 | 998132 | 1149619 | 935073 | 994522 | 129.0 | 1688513 | 1657600 | % Activation (STAT3; IFNγ = 100%) ([1]; 25 μM): 109.76%; RLU 1 ([1]; 25 μM): 11157 RLU; RLU 2 ([1]; 25 μM): 10163 RLU; RLU 3 ([1]; 25 μM): 10660 RLU; RLU MEAN ([1]; 25 μM): 10660 RLU; RLU specific ([1]; 25 μM): 8825 RLU; % Activation (STAT3; IFNγ = 100%) ([1]; 50 μM): 93.74%; RLU 1 ([1]; 50 μM): 7983 RLU; RLU 2 ([1]; 50 μM): 9023 RLU; RLU 3 ([1]; 50 μM): 11110 RLU; RLU MEAN ([1]; 50 μM): 9372 RLU; RLU specific ([1]; 50 μM): 7537 RLU; % Activation (NF-κB; TNFα = 100%) ([2]; 25 μM): 163.2%; Measure 2 (fluorescence) ([3]; 50 μM): 1788604; Measure 3 (fluorescence) ([3]; 50 μM): 1619334; RFU specific ([3]; 50 μM): 1655427 RFU
2 | COc1cc(C2Oc3cc([C@H]4Oc5cc(O)cc(O)c5C(=O)[C@@H]4O)ccc3OC2CO)ccc1O (stereo partly drawn) [Silibinin] | – | – | – | – | – | – | – | – | – | – | – | – | – | – | – | – | – | – | – | – | % Activation (STAT3; IFNγ = 100%) ([1]; 25 μM): 121.32%; RLU 1 ([1]; 25 μM): 12389 RLU; RLU 2 ([1]; 25 μM): 11170 RLU; RLU 3 ([1]; 25 μM): 11210 RLU; RLU MEAN ([1]; 25 μM): 11590 RLU; RLU specific ([1]; 25 μM): 9755 RLU; % Activation (STAT3; IFNγ = 100%) ([1]; 50 μM): 120.55%; RLU 1 ([1]; 50 μM): 12157 RLU; RLU 2 ([1]; 50 μM): 11885 RLU; RLU 3 ([1]; 50 μM): 10540 RLU; RLU MEAN ([1]; 50 μM): 11527 RLU; RLU specific ([1]; 50 μM): 9692 RLU
3 | CC1O[C@@H](Oc2cc(O[C@@H]3OC(C)[C@H](O)C(O)C3O)c3c(=O)cc(-c4ccccc4)oc3c2)C(O)C(O)[C@H]1O (stereo partly drawn) [CR1, Chrysin-di-5,7-O-α-L-rhamnoside] | 109.9 | 157870 | 169000 | 173010 | 166627 | 143263 | 175140 | 183630 | 183960 | 180910 | 157547 | 48.3 | 426161 | 291406 | 358114 | 628963 | 419847 | 52.6 | 463245 | 619992 | % Activation (NF-κB; TNFα = 100%) ([2]; 25 μM): 120.8%; Measure 2 (fluorescence) ([3]; 50 μM): 595330; Measure 3 (fluorescence) ([3]; 50 μM): 174412; RFU specific ([3]; 50 μM): 456931 RFU
4 | CC1O[C@@H](Oc2cc(O)cc3oc(-c4ccccc4)cc(=O)c23)C(O)C(O)[C@H]1O (stereo partly drawn) [CR2, Chrysin-5-O-α-L-rhamnoside] | 101.7 | 156600 | 160140 | 151070 | 155937 | 132573 | 170390 | 179220 | 163490 | 171033 | 147670 | 47.2 | 416681 | 427937 | 431593 | 390512 | 410367 | 106.5 | 931673 | 771478 | activity at 25 µM ([2]; 6 h, 25 μM, read-out: % Activation (NF-κB; TNFα = 100%)): 113%; Measure 2 (fluorescence) ([3]; 50 μM): 1100390; Measure 3 (fluorescence) ([3]; 50 μM): 923151; RFU specific ([3]; 50 μM): 925359 RFU
